This is an account of results in ChEMBL document CHEMBL1134376, “Structure-activity relationship studies of 4-[2-(diphenylmethoxy)ethyl]-1-benzylpiperidine derivatives and their N-analogues: evaluation of O-and N-analogues and their binding to monoamine transporters” (J Med Chem, 2001).

The species entered for one assay is Rattus norvegicus. Kind of assay: Inhibition of dopamine reuptake ([3H]DA uptake) in […]. It counts as functional.
In assay [1] the target is Norepinephrine transporter (Rattus norvegicus, UniProt Q9WTR4). Put plainly: Affinity at norepinephrine transporter (NET) in rat striatum, using [3H]- nisoxatine as radioligand. It counts as tissue-based.
Assay [2] concerns the target Monoamine transporters; serotonin & dopamine (Rattus norvegicus) (UniProt P31652+P23977). Put plainly: Selectivity for serotonin transporter compared to dopamine transporter. Type of assay: protein assay.
Assay [3] has as its target Sodium-dependent dopamine transporter (Rattus norvegicus) (UniProt P23977). Put plainly: Ratio of ([3H]-DA uptake) / [3H]WIN-35428 binding was determined in […].
For assay [4], the target named is Sodium-dependent dopamine transporter (Rattus norvegicus, UniProt P23977). Put plainly: In vitro binding affinity at dopamine transporter in rat striatum by [3H]WIN-35428 displacement. Type of assay: tissue-based.
The target of assay [5] is Sodium-dependent serotonin transporter (Rattus norvegicus, UniProt P31652). Kind of assay: In vitro binding affinity at serotonin transporter in rat striatum by [3H]- citalopram displacement. It counts as tissue-based.
Sequence of Sodium-dependent serotonin transporter (P31652 whole entry): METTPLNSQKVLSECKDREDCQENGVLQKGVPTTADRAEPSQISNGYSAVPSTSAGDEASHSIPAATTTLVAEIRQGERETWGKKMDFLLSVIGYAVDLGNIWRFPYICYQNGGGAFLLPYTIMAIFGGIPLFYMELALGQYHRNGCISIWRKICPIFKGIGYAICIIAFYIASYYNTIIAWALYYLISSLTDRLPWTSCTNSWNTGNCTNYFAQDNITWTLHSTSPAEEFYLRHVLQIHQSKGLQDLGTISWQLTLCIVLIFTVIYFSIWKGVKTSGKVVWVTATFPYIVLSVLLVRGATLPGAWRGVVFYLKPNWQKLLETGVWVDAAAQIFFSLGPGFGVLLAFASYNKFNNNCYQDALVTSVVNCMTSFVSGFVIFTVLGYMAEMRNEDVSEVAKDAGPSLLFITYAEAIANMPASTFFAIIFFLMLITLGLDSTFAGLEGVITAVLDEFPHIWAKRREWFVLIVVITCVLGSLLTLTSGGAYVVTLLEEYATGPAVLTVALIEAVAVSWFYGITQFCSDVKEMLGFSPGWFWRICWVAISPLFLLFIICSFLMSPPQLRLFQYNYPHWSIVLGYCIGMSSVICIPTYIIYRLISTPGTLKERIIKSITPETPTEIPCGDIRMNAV

Sequence of Norepinephrine transporter (Q9WTR4 whole entry): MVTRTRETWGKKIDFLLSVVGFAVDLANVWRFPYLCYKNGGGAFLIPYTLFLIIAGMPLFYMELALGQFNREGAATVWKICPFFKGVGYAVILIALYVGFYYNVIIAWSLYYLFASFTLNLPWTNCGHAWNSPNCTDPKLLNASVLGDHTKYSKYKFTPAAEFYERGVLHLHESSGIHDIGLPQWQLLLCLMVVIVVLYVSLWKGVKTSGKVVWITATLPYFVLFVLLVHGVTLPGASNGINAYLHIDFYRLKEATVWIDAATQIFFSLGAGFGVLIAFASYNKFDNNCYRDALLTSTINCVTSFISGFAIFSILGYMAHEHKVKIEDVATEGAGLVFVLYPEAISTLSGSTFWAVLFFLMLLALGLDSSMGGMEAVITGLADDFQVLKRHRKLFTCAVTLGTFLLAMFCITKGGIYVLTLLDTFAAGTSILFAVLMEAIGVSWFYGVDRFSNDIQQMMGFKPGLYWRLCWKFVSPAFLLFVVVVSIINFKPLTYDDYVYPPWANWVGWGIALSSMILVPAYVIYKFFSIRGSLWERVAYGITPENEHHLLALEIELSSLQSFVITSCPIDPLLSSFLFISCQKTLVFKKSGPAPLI
Sequence of Sodium-dependent dopamine transporter (Rattus norvegicus) (P23977 whole entry, looked up): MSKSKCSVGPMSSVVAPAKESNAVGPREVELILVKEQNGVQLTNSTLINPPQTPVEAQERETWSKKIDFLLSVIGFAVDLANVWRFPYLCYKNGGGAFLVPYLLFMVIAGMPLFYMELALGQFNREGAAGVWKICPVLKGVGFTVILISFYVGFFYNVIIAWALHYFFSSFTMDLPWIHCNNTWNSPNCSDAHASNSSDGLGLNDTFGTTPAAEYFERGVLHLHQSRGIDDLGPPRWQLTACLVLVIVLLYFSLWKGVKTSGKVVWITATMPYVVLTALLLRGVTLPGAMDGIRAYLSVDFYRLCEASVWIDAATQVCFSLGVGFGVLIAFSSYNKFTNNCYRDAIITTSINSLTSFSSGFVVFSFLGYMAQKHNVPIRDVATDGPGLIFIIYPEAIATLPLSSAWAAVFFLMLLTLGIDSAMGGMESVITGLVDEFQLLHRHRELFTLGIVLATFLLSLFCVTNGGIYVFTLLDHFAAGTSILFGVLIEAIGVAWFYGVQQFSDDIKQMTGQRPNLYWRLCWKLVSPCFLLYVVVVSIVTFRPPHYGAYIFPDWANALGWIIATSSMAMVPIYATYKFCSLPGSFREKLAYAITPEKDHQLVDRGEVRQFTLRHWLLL
Sequence of Monoamine transporters; serotonin & dopamine (Rattus norvegicus) (P23977 whole entry, looked up): as above
Sequence of Monoamine transporters; serotonin & dopamine (Rattus norvegicus) (P31652 whole entry, looked up): as the sequence (P31652 whole entry) above
Sequence of Sodium-dependent dopamine transporter (P23977 whole entry): as the sequence (P23977 whole entry, looked up) above

Broadly, the IC50 is the concentration needed to halve the response being measured. High values mean weaker potency, low ones greater potency. Consider `Fc1ccc(CN2CCC(CNOC(c3ccccc3)c3ccccc3)CC2)cc1`, for which the IC50 in the assay filed under Rattus norvegicus turned out to be 16.6 nM; in assay [1], 691 nM. Besides, the Ratio in assay [2] stood at 19; in assay [3] it was 0.48.

As to `Fc1ccc(CN2CCC(CCNC(c3ccccc3)c3ccccc3)CC2)cc1F`, the figures for the IC50 (in the assay listed under Rattus norvegicus; in assay [1]) were 10.7 nM and 1030 nM, respectively.

Consider `Fc1ccc(C(NCC2CCN(CCc3ccccc3)CC2)c2ccc(F)cc2)cc1`, for which the Ratio in assay [2] was 17.

Consider `FC(F)(F)c1ccc(CN2CCC(CCOC(c3ccccc3)c3ccccc3)CC2)cc1`, for which, in assay [2], the Ratio is 71.

In the case of `Fc1ccc(CN2CCC(CCNC(c3ccccc3)c3ccccc3)CC2)cc1`, the 50% inhibitory concentration (IC50) in the assay filed under Rattus norvegicus turned out to be 12 nM; in assay [1] it was 945 nM. Further, the Ratio came to 62 in assay [2] and 1.33 in assay [3].

Consider `Fc1ccc(CN2CCC(CNCC(c3ccccc3)c3ccccc3)CC2)cc1`, for which the values for the 50% inhibitory concentration (IC50) (in the assay filed under Rattus norvegicus; in assay [1]) were 49.6 nM and 1100 nM, respectively. The values for the Ratio in assay [2] and in assay [3] were 7 and 2.5, respectively.

Turning to `CC(NCCC1CCN(Cc2ccc(F)cc2)CC1)c1ccccc1` (centres undefined), the Ratio in assay [2] was 3.2.

As for `CC(OCCC1CCN(Cc2ccc(F)cc2)CC1)c1ccccc1` (centres undefined), the Ratio in assay [2] came to 7.8. For the same molecule, the values for the IC50 in assay [4] and in assay [5] were 751 nM and 5860 nM, respectively.

With `CS(=O)(=O)Nc1ccc(CN2CCC(CCOC(c3ccccc3)c3ccccc3)CC2)cc1`, the 50% inhibitory concentration (IC50) in the assay filed under Rattus norvegicus was 9.73 nM. Further, the figures for the Ratio in assay [2] and in assay [3] were 22 and 0.36, respectively.

Consider `CN(CC1CCN(Cc2ccc(F)cc2)CC1)CC(c1ccccc1)c1ccccc1`, for which the Ratio in assay [2] is 27.

Take `Fc1ccc(CN2CCC(CCOC(c3ccccc3)c3ccccc3)CC2)cc1F`: the IC50 in assay [1] was determined as 921 nM. The Ratio in assay [2] turned out to be 122.

Regarding `Fc1cccc(CN2CCC(CCOC(c3ccccc3)c3ccccc3)CC2)c1`, in assay [2], the Ratio stood at 49.

Take `Fc1ccc(CN2CCC(CCOC(c3ccccc3)c3ccccc3)CC2)cc1`: 2.48 nM corresponded to half-maximal inhibition in the assay filed under Rattus norvegicus (IC50). Further, the Ratio in assay [2] amounted to 113.

As for `c1ccc(CN2CCC(CCNC(c3ccccc3)c3ccccc3)CC2)cc1`, the IC50 in the assay filed under Rattus norvegicus worked out at 20.6 nM; in assay [1], 2620 nM.

`N#Cc1ccc(CN2CCC(CCOC(c3ccccc3)c3ccccc3)CC2)cc1`: the IC50 in the assay filed under Rattus norvegicus is 4.58 nM; in assay [1], 342 nM. The Ratio in assay [2] came to 615.

For the molecule `O=C(Cc1ccccc1)N1CCC(CCOC(c2ccccc2)c2ccccc2)CC1`, the Ratio in assay [2] worked out at 6.1. In assay [5], the half-inhibitory concentration (IC50) stood at 13200 nM.

`CN(CCC1CCN(Cc2ccc(F)cc2)CC1)C(c1ccccc1)c1ccccc1`: the Ratio in assay [2] was 7.8. Moreover, the figures for the IC50 in assay [4] and in assay [5] were 213 nM and 1660 nM, respectively.
